Assay results published in patent publication US12263155B2, “Combinations of monoamine oxidase inhibitors and serotonin receptor agonists and their therapeutic use” (Remedi, Inc., priority 2022, dated 2025).
Like-named read-outs stand apart in the source and are kept apart here.

How the values were obtained:
[1] = 10, 20 and 40 mg twice daily for 14 days, healthy volunteers
Description: (§1) Methods: The study was a Phase I, single-center, randomized, parallel-group, multiple-dose, placebo-controlled, pharmacodynamic, pharmacokinetic and safety study in healthy volunteers. To obtain 24 enrolled subjects, screening procedures and inclusion/exclusion criteria were evaluated for 54 subjects during a variable screening period of up to 28 days. Once enrolled, subjects were randomized to either CX157 10 mg, 20 mg or 40 mg or matching placebo administered twice daily for 14 consecutive days.

[2] = Phase I 14-day twice-daily pharmacokinetics; details: for concentration at 12 h: C12h
Description: as §1
Formulations: Each natural/transparent Licaps® size 0 hard gelatin capsule contains 10 mg CX157 in Labrasol™; each capsule is banded with a green gelatin band comprised of gelatin NF and polysorbate-80 NF. CX157 Liquid Filled Capsules are packaged in white, opaque, high density polyethylene (HDPE) bottles with screw-top polypropylene child resistant caps. Each bottle contains 30 capsules. CX157 Liquid Filled Capsules, 5 and 10 mg are stored long-term at controlled room temperature conditions [15-30° C. (59-86° F.)].

[3] = Phase I modified release tablets BID safety; type: in vivo, human; details: 125 mg and 175 mg BID, 7 days each
Description: (§2) Methods: A total of 20 Subjects (16 on CX157 and 4 on placebo) were dosed with CX157 Modified Release Tablets, 125 mg BID (total daily dose of 250 mg) or placebo in Period 1 for 7 days. Of the 20 subjects, 19 continued in Period 2 of the study where they received CX157 Modified Release Tablets, 175 mg BID (total daily dose of 350 mg) or placebo in the fed state for 7 days. Subjects who were randomized to CX157 125 mg BID in Period 1 received CX157 175 mg BID in Period 2, after a washout of 7 days. Subjects randomized to placebo in Period 1 received placebo in Period 2, after a washout of 7 days. Blood samples for PK analysis were collected during both periods of the study.

[4] = Phase I modified release tablets BID pharmacokinetics; type: in vivo, human; details: for Cmax / AUC / concentration at 7 day: human, plasma, oral, 125 mg
Description: as §2, with “Of the 20 subjects, 19 continued in Period 2 of the study where they received CX157 Modified Release Tablets, 175 mg BID (total daily dose of 350 mg) or placebo in the fed state for 7 days.” left out
Each oval, biconvex CX157 Film Coated Tablet, 125 mg has a white opaque film coating (Advantia™ Prime) and is stored long-term at controlled room temperature conditions [25° C. (77° F.); excursions 15-30° C. (59-86° F.)].
(§3) Each CX157 Modified Release Tablet, 175 mg is stored long-term at controlled room temperature conditions [25° C. (77° F.), excursions 15-30° C. (59-86° F.)]; the tablets are a modified caplet shape, pale pink in color, and plain on both sides.

[5] = Fed versus fasted pharmacokinetics of modified release tablet; type: in vivo; details: human, plasma, oral, 175 mg; fed and fasted; read-out: half-life, mean, range over treatments
Description: Methods: A total of 18 subjects were to participate and receive a single dose of CX157 Modified Release Tablet, 175 mg in fed or fasted states according to a randomization schedule. There was a six to seven-day washout period between the two study drug administrations.
as §3

[6] = healthy volunteers, 10 mg twice daily, Day 1, mean
[7] = healthy volunteers, 10 mg twice daily, Day 14, mean
[8] = healthy volunteers, 20 mg twice daily, Day 1, mean
[9] = healthy volunteers, 20 mg twice daily, Day 14, mean
[10] = healthy volunteers, 40 mg twice daily, Day 1, mean
[11] = healthy volunteers, 40 mg twice daily, Day 14, mean, N = 4
[12] = human, plasma, oral, 10 mg, healthy volunteers, 10 mg twice daily, Day 1, mean
[13] = human, plasma, oral, 10 mg, healthy volunteers, 10 mg twice daily, Day 14, mean
[14] = human, plasma, oral, 20 mg, healthy volunteers, 20 mg twice daily, Day 1, mean
[15] = human, plasma, oral, 20 mg, healthy volunteers, 20 mg twice daily, Day 14, mean
[16] = human, plasma, oral, 40 mg, healthy volunteers, 40 mg twice daily, Day 1, mean
[17] = human, plasma, oral, 40 mg, healthy volunteers, 40 mg twice daily, Day 14, mean, N = 4

Question: With `O=S1(=O)c2ccc(F)cc2Oc2cc(OCC(F)(F)F)ccc21` [CX157, 3-fluoro-7(2,2,2-trifluorethoxy)phenoxathiine-10,10-dioxide] as the molecule, how does the safety and tolerability [1] read?
Answer: generally safe and well tolerated

Question: What about the AUC0-12h/Dose [2, 6] of the same molecule?
Answer: 380

Question: What about the Cmax/Cmin [2, 6] of the same molecule?
Answer: 31.4 ratio

Question: What about the Cmax/Dose [2, 6] of the same molecule?
Answer: 137

Question: And the Tmin [2, 6]?
Answer: 10.7 h

Question: What about the AUC0-12h/Dose [2, 7] of the same molecule?
Answer: 753

Question: And the CSS [2, 7]?
Answer: 8.1 ng/mL

Question: And the Cmax/Cmin [2, 7]?
Answer: 6.64 ratio

Question: What about the Cmax/Dose [2, 7] of the same molecule?
Answer: 185

Question: What about the Tmin [2, 7] of the same molecule?
Answer: 12 h

Question: What about the AUC0-12h/Dose [2, 8] of the same molecule?
Answer: 312

Question: And the Cmax/Cmin [2, 8]?
Answer: 36.7 ratio

Question: And the Cmax/Dose [2, 8]?
Answer: 128

Question: What about the Cmin [2, 8] of the same molecule?
Answer: 0.00113 µg/mL

Question: What about the Tmin [2, 8] of the same molecule?
Answer: 12 h

Question: And the AUC0-12h/Dose [2, 9]?
Answer: 400

Question: What about the Cmax/Cmin [2, 9] of the same molecule?
Answer: 10.8 ratio

Question: What about the Cmax/Dose [2, 9] of the same molecule?
Answer: 104

Question: And the Cmin [2, 9]?
Answer: 0.00305 µg/mL

Question: What about the Tmin [2, 9] of the same molecule?
Answer: 12 h

Question: What about the “% AUCextrap” value ([2]; healthy volunteers, 20 mg twice daily, Day 14, mean, N = 2) of the same molecule?
Answer: 19.0c %

Question: And the AUC0-12h/Dose [2, 10]?
Answer: 363

Question: And the Cmax/Cmin [2, 10]?
Answer: 28.2 ratio

Question: And the Cmax/Dose [2, 10]?
Answer: 136

Question: What about the Cmin [2, 10] of the same molecule?
Answer: 0.00252 µg/mL

Question: And the Tmin [2, 10]?
Answer: 12 h

Question: And the “% AUCextrap” value [2, 11]?
Answer: 16.5%

Question: What about the AUC0-12h/Dose [2, 11] of the same molecule?
Answer: 687

Question: What about the CSS [2, 11] of the same molecule?
Answer: 29.6 ng/mL

Question: What about the Cmax/Cmin [2, 11] of the same molecule?
Answer: 15.6 ratio

Question: And the Cmax/Dose [2, 11]?
Answer: 320

Question: What about the Cmin [2, 11] of the same molecule?
Answer: 0.0088 µg/mL

Question: What about the Tmin [2, 11] of the same molecule?
Answer: 12 h

Question: What about the half-life ([2]; human, plasma, oral) of the same molecule?
Answer: 33.3 to 35.3 h

Question: What about the AUC(0-t) ([2]; human, plasma, oral, 10 mg, AUC0-12h, healthy volunteers, 10 mg twice daily, Day 1, mean) of the same molecule?
Answer: 0.05 µg·h/mL

Question: And the AUC(0-t) ([2]; human, plasma, oral, 10 mg, AUC0-12h, healthy volunteers, 10 mg twice daily, Day 14, mean)?
Answer: 0.097 µg·h/mL

Question: What about the AUC(0-t) ([2]; human, plasma, oral, 10 mg, AUClast, healthy volunteers, 10 mg twice daily, Day 14, mean) of the same molecule?
Answer: 0.18 µg·h/mL

Question: And the concentration at 12 h [2, 12]?
Answer: 0.00063 µg/mL

Question: What about the concentration at 12 h [2, 13] of the same molecule?
Answer: 0.003 µg/mL

Question: And the Cmax [2, 12]?
Answer: 0.0181 µg/mL

Question: What about the Cmax [2, 13] of the same molecule?
Answer: 0.0242 µg/mL

Question: And the concentration at 1 day ([2]; human, plasma, oral, 10 mg, Cmin, healthy volunteers, 10 mg twice daily, Day 1, mean)?
Answer: 0.0006 µg/mL

Question: And the concentration at 14 day ([2]; human, plasma, oral, 10 mg, Cmin, healthy volunteers, 10 mg twice daily, Day 14, mean)?
Answer: 0.003 µg/mL

Question: And the Tmax ([2]; human, plasma, oral, 10 mg, healthy volunteers, 10 mg twice daily, Day 1, median)?
Answer: 1 h

Question: What about the Tmax ([2]; human, plasma, oral, 10 mg, healthy volunteers, 10 mg twice daily, Day 14, median) of the same molecule?
Answer: 1 h

Question: And the AUC(0-inf) ([2]; human, plasma, oral, 20 mg)?
Answer: 0.433 µg·h/mL

Question: And the half-life ([2]; human, plasma, oral, 20 mg)?
Answer: 33.3 h

Question: And the AUC(0-t) ([2]; human, plasma, oral, 20 mg, AUC0-12h, healthy volunteers, 20 mg twice daily, Day 1, mean)?
Answer: 0.0835 µg·h/mL

Question: And the AUC(0-t) ([2]; human, plasma, oral, 20 mg, AUC0-12h, healthy volunteers, 20 mg twice daily, Day 14, mean)?
Answer: 0.115 µg·h/mL

Question: And the AUC(0-t) ([2]; human, plasma, oral, 20 mg, AUClast, healthy volunteers, 20 mg twice daily, Day 14, mean)?
Answer: 0.191 µg·h/mL

Question: What about the concentration at 12 h [2, 14] of the same molecule?
Answer: 0.00113 µg/mL

Question: And the concentration at 12 h [2, 15]?
Answer: 0.00305 µg/mL

Question: What about the concentration at 14 day ([2]; human, plasma, oral, 20 mg, CSS, healthy volunteers, 20 mg twice daily, Day 14, mean) of the same molecule?
Answer: 0.0096 µg/mL

Question: What about the Cmax [2, 14] of the same molecule?
Answer: 0.0323 µg/mL

Question: And the Cmax [2, 15]?
Answer: 0.0301 µg/mL

Question: And the Tmax ([2]; human, plasma, oral, 20 mg, healthy volunteers, 20 mg twice daily, Day 1, median)?
Answer: 1.25 h

Question: What about the Tmax ([2]; human, plasma, oral, 20 mg, healthy volunteers, 20 mg twice daily, Day 14, median) of the same molecule?
Answer: 1.5 h

Question: What about the AUC(0-inf) ([2]; human, plasma, oral, 40 mg) of the same molecule?
Answer: 0.712 µg·h/mL

Question: And the half-life ([2]; human, plasma, oral, 40 mg)?
Answer: 35.3 h

Question: And the AUC(0-t) ([2]; human, plasma, oral, 40 mg, AUC0-12h, healthy volunteers, 40 mg twice daily, Day 1, mean)?
Answer: 0.186 µg·h/mL

Question: And the AUC(0-t) ([2]; human, plasma, oral, 40 mg, AUC0-12h, healthy volunteers, 40 mg twice daily, Day 14, mean, N = 4)?
Answer: 0.355 µg·h/mL

Question: And the AUC(0-t) ([2]; human, plasma, oral, 40 mg, AUClast, healthy volunteers, 40 mg twice daily, Day 14, mean, N = 4)?
Answer: 0.602 µg·h/mL

Question: What about the concentration at 12 h [2, 16] of the same molecule?
Answer: 0.00252 µg/mL

Question: And the concentration at 12 h [2, 17]?
Answer: 0.0088 µg/mL

Question: And the concentration at 14 day ([2]; human, plasma, oral, 40 mg, CSS, healthy volunteers, 40 mg twice daily, Day 14, mean, N = 4)?
Answer: 0.0296 ± 0.0196 µg/mL

Question: What about the Cmax [2, 16] of the same molecule?
Answer: 0.0695 µg/mL

Question: What about the Cmax [2, 17] of the same molecule?
Answer: 0.166 ± 0.179 µg/mL

Question: What about the Tmax ([2]; human, plasma, oral, 40 mg, healthy volunteers, 40 mg twice daily, Day 1, median) of the same molecule?
Answer: 1.08 h

Question: What about the Tmax ([2]; human, plasma, oral, 40 mg, healthy volunteers, 40 mg twice daily, Day 14, median, N = 4) of the same molecule?
Answer: 0.5 h

Question: What about the AUC(0-t) ([2]; human, plasma, oral, 40 mg, mean AUC0-12h, 40 mg twice daily, Day 14) of the same molecule?
Answer: 0.355 ± 0.235 µg·h/mL

Question: What about the tolerability [3] of the same molecule?
Answer: well tolerated

Question: And the “fluctuation in CX157 concentrations during each 12-h dosing interval at steady state” value ([4]; 125 mg BID, Day 7)?
Answer: 4.6 fold

Question: What about the “accumulation, Day 7 versus Day 1 exposures” value ([4]; BID dosing with 125 mg MR tablets) of the same molecule?
Answer: 2.6 fold

Question: And the Cmax ([4]; 125 mg BID, Day 1, read-out: mean Cmax)?
Answer: 0.134 ± 0.103 µg/mL

Question: What about the AUC ([4]; 12-hour AUC, 125 mg BID, Day 1) of the same molecule?
Answer: 0.702 ± 0.5 µg·h/mL

Question: And the AUC ([4]; MR tablets 125 mg BID, Day 7, mean, read-out: AUCSS)?
Answer: 1.28 ± 0.651 µg·h/mL

Question: What about the concentration at 7 day ([4]; MR tablets 125 mg BID, Day 7, mean, read-out: CSS) of the same molecule?
Answer: 0.107 ± 0.054 µg/mL

Question: And the Cmax ([4]; MR tablets 125 mg BID, Day 7, mean, read-out: Cmax)?
Answer: 0.231 ± 0.114 µg/mL

Question: And the concentration at 7 day ([4]; MR tablets 125 mg BID, Day 7, mean, read-out: Cmin)?
Answer: 0.0549 ± 0.032 µg/mL

Question: What about the half-life [5] of the same molecule?
Answer: 20.6 to 23.5 h
